Reference: BigSolDB 2.1

CONC(=O)Nc1ccc(-c2sc3c(c2CN(C)C)c(=O)n(-c2ccc(OC)nn2)c(=O)n3Cc2c(F)cccc2F)cc1
solubility (mole fraction)
Details	298.15 K	303.15 K	308.15 K	313.15 K	318.15 K	323.15 K
in acetonitrile	0.000483	0.000585	0.000667	0.000752	0.000856	0.000999
in ethanol	0.000134	0.000152	0.000171	0.000209	0.00025	0.000301
in ethyl acetate	0.000368	0.0004	0.00045	0.000505	0.000539	0.000576
in isopropanol	6.6e-05	8.3e-05	0.000103	0.000125	0.000153	0.000191
in methanol	0.000438	0.00051	0.000578	0.000639	0.000713	0.000774
